One assay concerns the target T1, c-kit mutant D816V (Homo sapiens, UniProt P10721, D816V/DEL694-753).
T1 construct: residues 551-934, kinase insertion domain residues 694-753 deleted; 6x-histidine (N); made in house; host or cells: E. coli Arctic Express (DE3) RIL (Stratagene)
Description: c-Kit mutant D816V biochemical assay, AlphaScreen. The following applies: c-kit D816V biochemical inhibitory activity; read-out: Biochemical activity (IC50 μM) Kit D816V. The gist of the method: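 Eight-point, threefold compound series incubated 30 min at room temperature with E. coli-produced D816V kinase, 10 μM ATP, Mg2+/Mn2+ HEPES buffer pH 7.2 and 5% DMSO. After EDTA stop, streptavidin and anti-phosphotyrosine (PY20) AlphaScreen beads gave the read-out, and IC50 was fitted from the concentration–signal curve.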
For orientation: In Alpha technology, singlet oxygen from a donor bead excites a nearby acceptor bead.

A further assay has as its target T2, c-kit kinase (Homo sapiens, UniProt P10721).
T2 construct: The c-kit (or kinase domain thereof) is an active kinase in AlphaScreen; poly-Histidine tag (in-house protein only) (cleaved yes); host or cells: E. coli BL21(DE3)RIL, co-expressed with PTP1B
Description: c-Kit biochemical assay, AlphaScreen, 10 μM ATP. The following applies: c-kit biochemical inhibitory activity; read-out: Biochemical activity (IC50 μM) Kit. Put shortly:
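His-tagged c-Kit expressed in E. coli with co-expressed PTP1B (dephosphorylated), tag removed; 0.1 ng per reaction with biotinylated-peptide substrate in 50 mM HEPES pH 7.2, 5 mM MgCl2, 5 mM MnCl2, 5% DMSO, 10 μM ATP, 1 h at room temperature. Phosphorylation detected by AlphaScreen (streptavidin donor, PY20 acceptor beads); IC50 from 8-point 1:3 dilution series.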

In general, IC50 refers to the concentration that inhibits the measured activity by half.

T1 sequence (P10721 with tags, fused parts or gaps DEL694-753/D816V): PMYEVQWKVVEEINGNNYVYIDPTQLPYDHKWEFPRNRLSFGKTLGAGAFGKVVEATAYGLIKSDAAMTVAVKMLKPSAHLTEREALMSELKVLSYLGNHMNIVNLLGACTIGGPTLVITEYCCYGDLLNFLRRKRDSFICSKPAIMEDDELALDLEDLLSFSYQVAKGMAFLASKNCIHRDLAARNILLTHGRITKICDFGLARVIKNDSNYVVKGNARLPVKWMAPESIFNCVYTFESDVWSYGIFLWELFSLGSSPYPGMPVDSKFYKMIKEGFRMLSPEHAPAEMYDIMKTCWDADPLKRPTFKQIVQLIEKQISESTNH
T2 sequence (P10721 26-976): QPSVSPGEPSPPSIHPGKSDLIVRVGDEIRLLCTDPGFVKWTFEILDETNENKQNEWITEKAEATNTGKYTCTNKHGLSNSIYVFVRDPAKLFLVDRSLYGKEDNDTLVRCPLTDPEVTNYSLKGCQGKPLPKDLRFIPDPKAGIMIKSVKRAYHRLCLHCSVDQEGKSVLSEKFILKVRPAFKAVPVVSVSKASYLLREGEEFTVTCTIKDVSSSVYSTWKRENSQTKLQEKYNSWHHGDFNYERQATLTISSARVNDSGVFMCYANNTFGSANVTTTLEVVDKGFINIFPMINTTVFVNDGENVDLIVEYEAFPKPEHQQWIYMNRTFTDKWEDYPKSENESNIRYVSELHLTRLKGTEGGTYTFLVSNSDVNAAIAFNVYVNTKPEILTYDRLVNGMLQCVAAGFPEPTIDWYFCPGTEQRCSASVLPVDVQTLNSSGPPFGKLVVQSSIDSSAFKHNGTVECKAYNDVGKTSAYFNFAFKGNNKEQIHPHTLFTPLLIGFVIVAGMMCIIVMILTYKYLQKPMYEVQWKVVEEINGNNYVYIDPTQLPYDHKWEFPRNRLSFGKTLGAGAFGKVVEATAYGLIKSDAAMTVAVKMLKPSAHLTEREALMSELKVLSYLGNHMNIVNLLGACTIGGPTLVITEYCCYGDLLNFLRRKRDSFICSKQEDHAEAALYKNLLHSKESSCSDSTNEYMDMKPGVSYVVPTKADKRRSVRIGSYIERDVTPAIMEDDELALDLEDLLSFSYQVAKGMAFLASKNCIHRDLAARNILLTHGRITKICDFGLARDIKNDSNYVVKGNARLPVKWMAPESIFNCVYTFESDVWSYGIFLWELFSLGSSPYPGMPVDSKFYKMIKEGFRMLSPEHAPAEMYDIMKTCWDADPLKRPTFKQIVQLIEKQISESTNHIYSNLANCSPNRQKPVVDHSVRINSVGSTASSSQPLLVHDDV

For the compound `C[C@@H]1CN(c2ncnc3[nH]c(-c4ccncc4)cc23)CCN1C(=O)NCc1cccc(Cl)c1` [P-0056, (2R)-N-[(3-chlorophenyl)methyl]-2-methyl-4-[6-(4-pyridyl)-7H-pyrrolo[2,3-d]pyrimidin-4-yl]piperazine-1-carboxamide], the figures for the IC50 on c-kit mutant D816V and on c-kit kinase were 0.0001 to 1 µM and 1 to 10 µM, respectively.

Turning to `COc1ccc(NC(=O)N2CCN(c3ncnc4[nH]c(-c5ccncc5)cc34)C[C@H]2C)cn1` [P-0057, (2R)-N-(6-methoxy-3-pyridyl)-2-methyl-4-[6-(4-pyridyl)-7H-pyrrolo[2,3-d]pyrimidin-4-yl]piperazine-1-carboxamide], the values for the 50% inhibitory concentration (IC50) at c-kit mutant D816V and at c-kit kinase were 0.0001 to 1 µM and 1 to 10 µM, respectively.

As to `C[C@H](NC(=O)N1CCN(c2ncnc3[nH]c(-c4ccncc4)cc23)C[C@H]1C)c1ccc(F)cc1` [P-0058, (2R)-N-[(1S)-1-(4-fluorophenyl)ethyl]-2-methyl-4-[6-(4-pyridyl)-7H-pyrrolo[2,3-d]pyrimidin-4-yl]piperazine-1-carboxamide], the IC50 at c-kit mutant D816V fell in the range of 0.0001 to 1 µM; at c-kit kinase, 1 to 10 µM.

Take `C[C@H](NC(=O)N1CCN(c2ncnc3[nH]c(-c4ccncc4)cc23)C[C@H]1C)c1ccc(Cl)cc1` [P-0059, (2R)-N-[(1S)-1-(4-chlorophenyl)ethyl]-2-methyl-4-[6-(4-pyridyl)-7H-pyrrolo[2,3-d]pyrimidin-4-yl]piperazine-1-carboxamide]: the IC50 at c-kit mutant D816V and on c-kit kinase was 0.0001 to 1 µM throughout.

Regarding `COc1cccc([C@H](C)NC(=O)N2CCN(c3ncnc4[nH]c(-c5ccncc5)cc34)C[C@H]2C)c1` [P-0060, (2R)-N-[(1S)-1-(3-methoxyphenyl)ethyl]-2-methyl-4-[6-(4-pyridyl)-7H-pyrrolo[2,3-d]pyrimidin-4-yl]piperazine-1-carboxamide], the IC50 at c-kit mutant D816V and on c-kit kinase was 0.0001 to 1 µM throughout.

In the case of `C[C@@H]1CN(c2ncnc3[nH]c(-c4ccncc4)cc23)CCN1C(=O)NCc1ccc(F)cc1` [P-0061, (2R)-N-[(4-fluorophenyl)methyl]-2-methyl-4-[6-(4-pyridyl)-7H-pyrrolo[2,3-d]pyrimidin-4-yl]piperazine-1-carboxamide], the IC50 was 0.0001 to 1 µM at c-kit mutant D816V and 1 to 10 µM on c-kit kinase.

Take `C[C@@H]1CN(c2ncnc3[nH]c(-c4ccncc4)cc23)CCN1C(=O)Nc1ccc(F)c(Cl)c1` [P-0062, (2R)-N-(3-chloro-4-fluoro-phenyl)-2-methyl-4-[6-(4-pyridyl)-7H-pyrrolo[2,3-d]pyrimidin-4-yl]piperazine-1-carboxamide]: the IC50 fell in the range of 0.0001 to 1 µM on c-kit mutant D816V and 1 to 10 µM on c-kit kinase.

`C[C@@H]1CN(c2ncnc3[nH]c(-c4ccncc4)cc23)CCN1C(=O)Nc1ccc(OC(F)(F)F)cc1` [P-0063, (2R)-2-methyl-4-[6-(4-pyridyl)-7H-pyrrolo[2,3-d]pyrimidin-4-yl]-N-[4-(trifluoromethoxy)phenyl]piperazine-1-carboxamide]: the IC50 on c-kit mutant D816V and on c-kit kinase was 0.0001 to 1 µM throughout.

Regarding `C[C@@H]1CN(c2ncnc3[nH]c(-c4ccncc4)cc23)CCN1C(=O)NCc1ccc(Cl)cc1` [P-0064, (2R)-N-[(4-chlorophenyl)methyl]-2-methyl-4-[6-(4-pyridyl)-7H-pyrrolo[2,3-d]pyrimidin-4-yl]piperazine-1-carboxamide], the 50% inhibitory concentration (IC50) at c-kit mutant D816V and on c-kit kinase was 0.0001 to 1 µM in each case.

In the case of `C[C@@H]1CN(c2ncnc3[nH]c(-c4ccncc4)cc23)CCN1C(=O)Nc1ccc(Cl)cc1` [P-0065, (2R)-N-(4-chlorophenyl)-2-methyl-4-[6-(4-pyridyl)-7H-pyrrolo[2,3-d]pyrimidin-4-yl]piperazine-1-carboxamide], the IC50 at c-kit mutant D816V and at c-kit kinase was 0.0001 to 1 µM throughout.

Regarding `C[C@@H]1CN(c2ncnc3[nH]c(-c4ccncc4)cc23)CCN1C(=O)Nc1ccc(N(C)C)cc1` [P-0066, (2R)-N-(4-dimethylaminophenyl)-2-methyl-4-[6-(4-pyridyl)-7H-pyrrolo[2,3-d]pyrimidin-4-yl]piperazine-1-carboxamide], the values for the IC50 at c-kit mutant D816V and on c-kit kinase were 0.0001 to 1 µM and 1 to 10 µM, respectively.

Turning to `O=C(Nc1ccc(OC(F)(F)F)cc1)N1CCN(c2ncnc3[nH]c(-c4ccccc4F)cc23)CC1` [P-0067, 4-[6-(2-fluorophenyl)-7H-pyrrolo[2,3-d]pyrimidin-4-yl]-N-[4-(trifluoromethoxy)phenyl]piperazine-1-carboxamide], the IC50 was 1 to 10 µM at c-kit mutant D816V and 0.0001 to 1 µM at c-kit kinase.

`CC1CN(c2ncnc3[nH]c(-c4ccncc4)cc23)CCN1C(=O)Nc1ccccc1` (stereo not shown) [P-0068, 2-methyl-N-phenyl-4-[6-(4-pyridyl)-7H-pyrrolo[2,3-d]pyrimidin-4-yl]piperazine-1-carboxamide]: the IC50 on c-kit mutant D816V and at c-kit kinase was 1 to 10 µM each time.

For `CN(C)c1ccc(NC(=O)N2CCN(c3ncnc4[nH]c(-c5ccc(C#N)cc5)cc34)CC2)cc1` [P-0070, 4-[6-(4-cyanophenyl)-7H-pyrrolo[2,3-d]pyrimidin-4-yl]-N-(4-dimethylaminophenyl)piperazine-1-carboxamide], the half-inhibitory concentration (IC50) on c-kit mutant D816V and on c-kit kinase was 1 to 10 µM throughout.

Consider `C[C@H]1CN(c2ncnc3[nH]c(-c4ccncc4)cc23)CCN1` [P-0071, 4-[(3S)-3-methylpiperazin-1-yl]-6-(4-pyridyl)-7H-pyrrolo[2,3-d]pyrimidine], for which the concentration for half-maximal inhibition (IC50) on c-kit mutant D816V is 1 to 10 µM; at c-kit kinase it was 10 to 200 µM.

As to `C[C@H](NC(=O)N1CCN(c2ncnc3[nH]c(-c4ccc(F)cc4)cc23)CC1)c1cccc(OC(F)F)c1` [P-0072, N-[(1S)-1-[3-(difluoromethoxy)phenyl]ethyl]-4-[6-(4-fluorophenyl)-7H-pyrrolo[2,3-d]pyrimidin-4-yl]piperazine-1-carboxamide], the figures for the 50% inhibitory concentration (IC50) on c-kit mutant D816V and on c-kit kinase were 0.0001 to 1 µM and 1 to 10 µM, respectively.

As to `C[C@@H]1CN(c2ncnc3[nH]c(-c4ccncc4)cc23)CCN1` [P-0074, 4-[(3R)-3-methylpiperazin-1-yl]-6-(4-pyridyl)-7H-pyrrolo[2,3-d]pyrimidine], the IC50 at c-kit mutant D816V and on c-kit kinase was 10 to 200 µM throughout.

For the compound `C[C@H](NC(=O)N1CCN(c2ncnc3[nH]c(-c4ccc(F)cc4)cc23)CC1)c1cccc(OC(F)(F)F)c1` [P-0075, 4-[6-(4-fluorophenyl)-7H-pyrrolo[2,3-d]pyrimidin-4-yl]-N-[(1S)-1-[3-(trifluoromethoxy)phenyl]lethyl]piperazine-1-carboxamide], the concentration for half-maximal inhibition (IC50) on c-kit mutant D816V was in the range of 1 to 10 µM; at c-kit kinase, 10 to 200 µM.

As for `CS(=O)(=O)Nc1ccc(-c2cc3c(N4CCN(C(=O)Nc5ccc(OC(F)(F)F)cc5)CC4)ncnc3[nH]2)cc1` [P-0077, 4-[6-[4-(methanesulfonamido)phenyl]-7H-pyrrolo[2,3-d]pyrimidin-4-yl]-N-[4-(trifluoromethoxy)phenyl]piperazine-1-carboxamide], the IC50 at c-kit mutant D816V and at c-kit kinase was 0.0001 to 1 µM each time.

Turning to `NC(=O)c1cccc(-c2cc3c(N4CCN(C(=O)Nc5ccc(OC(F)(F)F)cc5)CC4)ncnc3[nH]2)c1` [P-0078, 4-[6-(3-carbamoylphenyl)-7H-pyrrolo[2,3-d]pyrimidin-4-yl]-N-[4-(trifluoromethoxy)phenyl]piperazine-1-carboxamide], the results for the half-inhibitory concentration (IC50) on c-kit mutant D816V and on c-kit kinase were 10 to 200 µM and 0.0001 to 1 µM, respectively.

As to `Cc1ncc(-c2cc3c(N4CCN(C(=O)NCc5ccc(F)cc5)CC4)ncnc3[nH]2)s1` [P-0079, N-[(4-fluorophenyl)methyl]-4-[6-(2-methylthiazol-5-yl)-7H-pyrrolo[2,3-d]pyrimidin-4-yl]piperazine-1-carboxamide], the IC50 on c-kit mutant D816V and at c-kit kinase was 0.0001 to 1 µM in each case.

Regarding `Cc1ncc(-c2cc3c(N4CCN(C(=O)Nc5ccc(OC(F)(F)F)cc5)CC4)ncnc3[nH]2)s1` [P-0080, 4-[6-(2-methylthiazol-5-yl)-7H-pyrrolo[2,3-d]pyrimidin-4-yl]-N-[4-(trifluoromethoxy)phenyl]piperazine-1-carboxamide], the half-inhibitory concentration (IC50) at c-kit mutant D816V and on c-kit kinase was 0.0001 to 1 µM each time.

For the compound `CNC(=O)c1cccc(-c2cc3c(N4CCN(C(=O)NCc5ccc(F)cc5)CC4)ncnc3[nH]2)c1` [P-0081, N-[(4-fluorophenyl)rnethyl]-4-[6-[3-(methylcarbamoyl)phenyl]-7H-pyrrolo[2,3-d]pyrimidin-4-yl]piperazine-1-carboxamide], the IC50 at c-kit mutant D816V was in the range of 0.0001 to 1 µM; on c-kit kinase, 1 to 10 µM.

As to `CC(=O)Nc1cccc(-c2cc3c(N4CCN(C(=O)NCc5ccc(F)cc5)CC4)ncnc3[nH]2)c1` [P-0082, 4-[6-(3-acetamidophenyl)-7H-pyrrolo[2,3-d]pyrimidin-4-yl]-N-[(4-fluorophenyl)methyl]piperazine-1-carboxamide], the IC50 was in the range of 0.0001 to 1 µM at c-kit mutant D816V and 1 to 10 µM on c-kit kinase.

Turning to `NS(=O)(=O)c1cccc(-c2cc3c(N4CCN(C(=O)Nc5ccc(OC(F)(F)F)cc5)CC4)ncnc3[nH]2)c1` [P-0083, 4-[6-(3-sulfamoylphenyl)-7H-pyrrolo[2,3-d]pyrimidin-4-yl]-N-[4-(trifluoromethoxy)phenyl]piperazine-1-carboxamide], the 50% inhibitory concentration (IC50) at c-kit mutant D816V and at c-kit kinase was 0.0001 to 1 µM in each case.

For the compound `CC(=O)Nc1ccc(-c2cc3c(N4CCN(C(=O)Nc5ccc(OC(F)(F)F)cc5)CC4)ncnc3[nH]2)cn1` [P-0084, 4-[6-(6-acetamido-3-pyridyl)-7H-pyrrolo[2,3-d]pyrimidin-4-yl]-N-[4-(trifluoromethoxy)phenyl]piperazine-1-carboxamide], the half-inhibitory concentration (IC50) at c-kit mutant D816V lay in the range of 0.0001 to 1 µM; at c-kit kinase, 1 to 10 µM.

For the origin of these results see patent US10227357B2, “Compounds and methods for kinase modulation, and indications therefor” (Plexxikon Inc., priority 2012, dated 2019).
